Test results reported in US20250313533A1, “QUINOLINE CARBOXYLIC ACID ESTER COMPOUND AND PREPARATION METHOD AND USE THEREOF” (priority 2019, published 2025).

What was measured:
[1] = system: pathogenic bacteria causing fruit blotch in watermelons; assay: In vitro bactericidal activity, fruit blotch in watermelons; format: cell-based, acidovorax; conditions: read-out: inhibitory rate; for inhibition at 1 ppm: dosage 1 ppm; for inhibition at 5 ppm: dosage 5 ppm
[2] = system: bacterial wilt in tobacco; assay: whole plant or invertebrate; conditions: Nicotiana tabacum, read-out: efficacy against bacterial wilt in tobacco
[3] = system: pathogenic bacteria causing stem rot in sweet potatoes; assay: In vitro bactericidal activity, stem rot in sweet potatoes; format: cell-based, dikia; conditions: read-out: inhibitory rate; for inhibition at 1 ppm: dosage 1 ppm; for inhibition at 5 ppm: dosage 5 ppm
[4] = system: pathogenic bacteria causing fire blight in pears; assay: In vitro bactericidal activity, fire blight in pears; format: cell-based, erwinia; conditions: Erwinia, read-out: inhibitory rate; for inhibition at 1 ppm: dosage 1 ppm; for inhibition at 5 ppm: dosage 5 ppm
[5] = system: pathogenic bacteria causing bacterial wilt in tobacco; assay: whole plant or invertebrate; format: cell-based, ralstonia; conditions: read-out: inhibitory rate
black shank in potatoes = assay: Living crops in vivo protective activity, potatoes (root irrigation); conditions: Solanum tuberosum, read-out: efficacy against black shank in potatoes; for pest or weed control at 5 ppm: dosage 5 ppm; for pest or weed control at 10 ppm: dosage 10 ppm
Description: Root irrigation was carried out on the potatoes for tests according to the designed concentration of the agents. The dosage for each plant was 200 mL and was kept consistent (also for the control). The black shank bacteria were inoculated on the second day after the application. The results were investigated according to the disease condition.

[6] = system: pathogenic bacteria causing black shank in potatoes; assay: In vitro bactericidal activity, black shank in potatoes; format: cell-based; conditions: read-out: inhibitory rate; for inhibition at 1 ppm: dosage 1 ppm; for inhibition at 5 ppm: dosage 5 ppm
[7] = system: indoor potted cucumber seedlings; assay: Effect of improving growth and development of crops; format: in vivo; parameters: Rate of growth rate increase (%): concentration or dose not given beside the values; conditions: versus blank control; for Rate of chlorophyll content increase (%) / Rate of leaf area increase (%): 14 days after application; for Rate of growth rate increase (%): plant height 14 days after application; for Rate of leaf area increase (%): second leaf
How it was run: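 Readouts: rate of increase in height growth, leaf area and SPAD chlorophyll content. Measurements were made before compound application and again 14 days afterwards, with leaf area computed from second-leaf dimensions.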

[8] = system: soft rot in Chinese cabbages; assay: whole plant or invertebrate; conditions: 48 h, read-out: efficacy against soft rot in Chinese cabbages
[9] = system: pathogenic bacteria causing bacterial blight in rice; assay: whole plant or invertebrate; format: cell-based, xanthomonas; conditions: read-out: inhibitory rate
[10] = system: pathogenic bacteria causing bacterial wilt in cassava; assay: organism not typed; format: cell-based; conditions: read-out: inhibitory rate
[11] = system: stem rot in sweet potatoes; assay: whole plant or invertebrate; conditions: read-out: efficacy against stem rot in sweet potatoes
cucumber seedlings = assay: Safety for plant growth after application; format: in vivo; conditions: dosage 200 ppm
How it was run: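 Potted cucumber seedlings grown indoors; read-outs: plant-height growth rate, chlorophyll content, leaf area.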

[12] = system: pathogenic bacteria causing bacterial angular leaf spot in cucumbers; assay: In vitro bactericidal activity, bacterial angular leaf spot in cucumbers; format: cell-based, pseudomonas; conditions: read-out: inhibitory rate; for inhibition at 1 ppm: dosage 1 ppm; for inhibition at 5 ppm: dosage 5 ppm
[13] = system: fruit blotch in watermelons; assay: whole plant or invertebrate; conditions: read-out: efficacy against fruit blotch in watermelons
bacterial blight in rice = assay: whole plant or invertebrate; conditions: Oryza sativa, read-out: efficacy against bacterial blight in rice
[14] = system: pathogenic bacteria causing black rot in Chinese cabbages; assay: In vitro bactericidal activity, black rot in Chinese cabbages; format: cell-based, xanthomonas; conditions: Xanthomonas, read-out: inhibitory rate; for inhibition at 1 ppm: dosage 1 ppm; for inhibition at 5 ppm: dosage 5 ppm

SMILES: CCOc1cc2c(cc1F)c(=O)c(C(=O)OCCCOC)cn2C1CC1 [Compound 315]
- inhibition at 1 ppm [1]: ≥ 90%
- inhibition at 5 ppm [1]: ≥ 90%
- pest or weed control at 5 ppm [2]: ≥ 90%
- pest or weed control at 10 ppm [2]: ≥ 90%
- inhibition at 1 ppm [3]: ≥ 90%
- inhibition at 5 ppm [3]: ≥ 90%
- inhibition at 1 ppm [4]: ≥ 90%
- inhibition at 5 ppm [4]: ≥ 90%
- inhibition at 1 ppm [5]: ≥ 90%
- inhibition at 5 ppm [5]: ≥ 90%
- pest or weed control at 5 ppm (black shank in potatoes): ≥ 90%
- pest or weed control at 10 ppm (black shank in potatoes): ≥ 90%
- inhibition at 1 ppm [6]: ≥ 90%
- inhibition at 5 ppm [6]: ≥ 90%
- Rate of chlorophyll content increase (%) [7]: 12%
- Rate of growth rate increase (%) [7]: 9%
- Rate of leaf area increase (%) [7]: 11%
- pest or weed control at 5 ppm [8]: ≥ 90%
- pest or weed control at 10 ppm [8]: ≥ 90%
- inhibition at 1 ppm [9]: ≥ 90%
- inhibition at 5 ppm [9]: ≥ 90%
- inhibition at 1 ppm [10]: ≥ 90%
- inhibition at 5 ppm [10]: ≥ 90%
- pest or weed control at 5 ppm [11]: ≥ 90%
- pest or weed control at 10 ppm [11]: ≥ 90%
- safety for plant growth (discoloration, necrosis, wilt, malformation) (cucumber seedlings): safe for plant growth
- inhibition at 1 ppm [12]: ≥ 90%
- inhibition at 5 ppm [12]: ≥ 90%
- pest or weed control at 5 ppm [13]: ≥ 90%
- pest or weed control at 10 ppm [13]: ≥ 90%
- pest or weed control at 5 ppm (bacterial blight in rice): ≥ 90%
- pest or weed control at 10 ppm (bacterial blight in rice): ≥ 90%
- inhibition at 1 ppm [14]: ≥ 90%
- inhibition at 5 ppm [14]: ≥ 90%

SMILES: COCOC(=O)c1cn(C2CC2)c2cc(Cl)c(F)cc2c1=O [Compound 143]
- inhibition at 1 ppm [1]: ≥ 80%
- inhibition at 5 ppm [1]: ≥ 90%
- pest or weed control at 5 ppm [2]: ≥ 90%
- pest or weed control at 10 ppm [2]: ≥ 90%
- inhibition at 1 ppm [3]: ≥ 80%
- inhibition at 5 ppm [3]: ≥ 90%
- inhibition at 1 ppm [4]: ≥ 80%
- inhibition at 5 ppm [4]: ≥ 90%
- inhibition at 1 ppm [5]: ≥ 80%
- inhibition at 5 ppm [5]: ≥ 90%
- pest or weed control at 5 ppm (black shank in potatoes): ≥ 80%
- pest or weed control at 10 ppm (black shank in potatoes): ≥ 90%
- inhibition at 1 ppm [6]: ≥ 80%
- inhibition at 5 ppm [6]: ≥ 90%
- Rate of chlorophyll content increase (%) [7]: 11%
- Rate of growth rate increase (%) [7]: 8%
- Rate of leaf area increase (%) [7]: 15%
- pest or weed control at 5 ppm [8]: ≥ 80%
- pest or weed control at 10 ppm [8]: ≥ 90%
- inhibition at 1 ppm [9]: ≥ 80%
- inhibition at 5 ppm [9]: ≥ 90%
- inhibition at 1 ppm [10]: ≥ 80%
- inhibition at 5 ppm [10]: ≥ 90%
- pest or weed control at 5 ppm [11]: ≥ 90%
- pest or weed control at 10 ppm [11]: ≥ 90%
- safety for plant growth (discoloration, necrosis, wilt, malformation) (cucumber seedlings): safe for plant growth
- inhibition at 1 ppm [12]: ≥ 80%
- inhibition at 5 ppm [12]: ≥ 90%
- pest or weed control at 5 ppm [13]: ≥ 90%
- pest or weed control at 10 ppm [13]: ≥ 90%
- pest or weed control at 5 ppm (bacterial blight in rice): ≥ 80%
- pest or weed control at 10 ppm (bacterial blight in rice): ≥ 90%
- inhibition at 1 ppm [14]: ≥ 80%
- inhibition at 5 ppm [14]: ≥ 90%

SMILES: COCCCOC(=O)c1cn(C2CC2)c2cc(OC)c(F)cc2c1=O [Compound 323]
- inhibition at 1 ppm [1]: ≥ 90%
- inhibition at 5 ppm [1]: ≥ 90%
- pest or weed control at 5 ppm [2]: ≥ 90%
- pest or weed control at 10 ppm [2]: ≥ 90%
- inhibition at 1 ppm [3]: ≥ 90%
- inhibition at 5 ppm [3]: ≥ 90%
- inhibition at 1 ppm [4]: ≥ 90%
- inhibition at 5 ppm [4]: ≥ 90%
- inhibition at 1 ppm [5]: ≥ 90%
- inhibition at 5 ppm [5]: ≥ 90%
- pest or weed control at 5 ppm (black shank in potatoes): ≥ 90%
- pest or weed control at 10 ppm (black shank in potatoes): ≥ 90%
- inhibition at 1 ppm [6]: ≥ 90%
- inhibition at 5 ppm [6]: ≥ 90%
- Rate of chlorophyll content increase (%) [7]: 19%
- Rate of growth rate increase (%) [7]: 13%
- Rate of leaf area increase (%) [7]: 13%
- pest or weed control at 5 ppm [8]: ≥ 90%
- pest or weed control at 10 ppm [8]: ≥ 90%
- inhibition at 1 ppm [9]: ≥ 90%
- inhibition at 5 ppm [9]: ≥ 90%
- inhibition at 1 ppm [10]: ≥ 90%
- inhibition at 5 ppm [10]: ≥ 90%
- pest or weed control at 5 ppm [11]: ≥ 90%
- pest or weed control at 10 ppm [11]: ≥ 90%
- safety for plant growth (discoloration, necrosis, wilt, malformation) (cucumber seedlings): safe for plant growth
- inhibition at 1 ppm [12]: ≥ 90%
- inhibition at 5 ppm [12]: ≥ 90%
- pest or weed control at 5 ppm [13]: ≥ 90%
- pest or weed control at 10 ppm [13]: ≥ 90%
- pest or weed control at 5 ppm (bacterial blight in rice): ≥ 90%
- pest or weed control at 10 ppm (bacterial blight in rice): ≥ 90%
- inhibition at 1 ppm [14]: ≥ 90%
- inhibition at 5 ppm [14]: ≥ 90%

SMILES: O=C(OCCCO)c1cn(C2CC2)c2cc(OCC(F)(F)F)c(F)cc2c1=O [Compound 329]
- inhibition at 1 ppm [1]: ≥ 90%
- inhibition at 5 ppm [1]: ≥ 90%
- pest or weed control at 5 ppm [2]: ≥ 90%
- pest or weed control at 10 ppm [2]: ≥ 90%
- inhibition at 1 ppm [3]: ≥ 90%
- inhibition at 5 ppm [3]: ≥ 90%
- inhibition at 1 ppm [4]: ≥ 90%
- inhibition at 5 ppm [4]: ≥ 90%
- inhibition at 1 ppm [5]: ≥ 90%
- inhibition at 5 ppm [5]: ≥ 90%
- pest or weed control at 5 ppm (black shank in potatoes): ≥ 90%
- pest or weed control at 10 ppm (black shank in potatoes): ≥ 90%
- inhibition at 1 ppm [6]: ≥ 90%
- inhibition at 5 ppm [6]: ≥ 90%
- Rate of chlorophyll content increase (%) [7]: 17%
- Rate of growth rate increase (%) [7]: 13%
- Rate of leaf area increase (%) [7]: 17%
- pest or weed control at 5 ppm [8]: ≥ 90%
- pest or weed control at 10 ppm [8]: ≥ 90%
- inhibition at 1 ppm [9]: ≥ 90%
- inhibition at 5 ppm [9]: ≥ 90%
- inhibition at 1 ppm [10]: ≥ 90%
- inhibition at 5 ppm [10]: ≥ 90%
- pest or weed control at 5 ppm [11]: ≥ 90%
- pest or weed control at 10 ppm [11]: ≥ 90%
- safety for plant growth (discoloration, necrosis, wilt, malformation) (cucumber seedlings): safe for plant growth
- inhibition at 1 ppm [12]: ≥ 90%
- inhibition at 5 ppm [12]: ≥ 90%
- pest or weed control at 5 ppm [13]: ≥ 90%
- pest or weed control at 10 ppm [13]: ≥ 90%
- pest or weed control at 5 ppm (bacterial blight in rice): ≥ 90%
- pest or weed control at 10 ppm (bacterial blight in rice): ≥ 90%
- inhibition at 1 ppm [14]: ≥ 90%
- inhibition at 5 ppm [14]: ≥ 90%

SMILES: COCCOC(=O)c1cn(C2CC2)c2cc(OC(C)(C)C)c(F)cc2c1=O [Compound 287]
- inhibition at 1 ppm [1]: ≥ 90%
- inhibition at 5 ppm [1]: ≥ 90%
- pest or weed control at 5 ppm [2]: ≥ 90%
- pest or weed control at 10 ppm [2]: ≥ 90%
- inhibition at 1 ppm [3]: ≥ 90%
- inhibition at 5 ppm [3]: ≥ 90%
- inhibition at 1 ppm [4]: ≥ 90%
- inhibition at 5 ppm [4]: ≥ 90%
- inhibition at 1 ppm [5]: ≥ 90%
- inhibition at 5 ppm [5]: ≥ 90%
- pest or weed control at 5 ppm (black shank in potatoes): ≥ 90%
- pest or weed control at 10 ppm (black shank in potatoes): ≥ 90%
- inhibition at 1 ppm [6]: ≥ 90%
- inhibition at 5 ppm [6]: ≥ 90%
- Rate of chlorophyll content increase (%) [7]: 13%
- Rate of growth rate increase (%) [7]: 10%
- Rate of leaf area increase (%) [7]: 10%
- pest or weed control at 5 ppm [8]: ≥ 90%
- pest or weed control at 10 ppm [8]: ≥ 90%
- inhibition at 1 ppm [9]: ≥ 90%
- inhibition at 5 ppm [9]: ≥ 90%
- inhibition at 1 ppm [10]: ≥ 90%
- inhibition at 5 ppm [10]: ≥ 90%
- pest or weed control at 5 ppm [11]: ≥ 90%
- pest or weed control at 10 ppm [11]: ≥ 90%
- safety for plant growth (discoloration, necrosis, wilt, malformation) (cucumber seedlings): safe for plant growth
- inhibition at 1 ppm [12]: ≥ 90%
- inhibition at 5 ppm [12]: ≥ 90%
- pest or weed control at 5 ppm [13]: ≥ 90%
- pest or weed control at 10 ppm [13]: ≥ 90%
- pest or weed control at 5 ppm (bacterial blight in rice): ≥ 90%
- pest or weed control at 10 ppm (bacterial blight in rice): ≥ 90%
- inhibition at 1 ppm [14]: ≥ 90%
- inhibition at 5 ppm [14]: ≥ 90%
